Results as given in patent US20260285816A1, “Piperazinyl-Modified Quinazolinyl-Aryl Urea Derivative, And Preparation Method And Use Thereof” (Guangxi Normal University, priority 2025, published 2026).
Like-named read-outs stand apart in the source and are kept apart here.

Experiments:
Type in all cases: cell-based, human
SK-OV-3 cells = experiment: CCK-8 anti-proliferative assay, SK-OV-3; details: co-incubated 48 h, read-out: Anti-proliferative activity (IC50 ± standard deviation) SK-OV-3
Experimental: (§1) The obtained quinazolinyl-aryl urea derivatives were screened for compounds with optimal activity using the following method.
(§2) Experimental Procedure for Anti-Proliferative Activity Evaluation: The CCK-8 assay was employed. Cells in logarithmic growth phase were harvested, adjusted to appropriate density, and uniformly seeded into 96-well plates using a multichannel pipette (180 μL cell suspension containing complete medium per well, 5,000 cells/well). Blank control wells (containing basal medium, CCK-8 solution, and DMSO only) were set. Cells were incubated at 37° C. under 5% CO2. After 70% confluency was reached, test compounds (target compounds/positive controls) were added at final concentrations of 1, 2, 4, 6, 8, 12, 16, 24, and 30 μM (3 repeated wells per concentration). Compounds were pre-dissolved in DMSO, sterilized, and diluted with medium before adding 20 μL/well. After co-incubation for designated durations, 10 μL CCK-8 solution was added per well followed by 1-4 h incubation (different cells have different incubation times). […] Inhibition rates were calculated as: (ODcontrol−ODtreatment)/ODcontrol×100%. Median inhibitory concentrations (IC50 values) were derived using Origin v8.0 software.

[1] = test system: immortalized ureteral epithelial cells (SV-HUC-1); experiment: CCK-8 anti-proliferative assay, normal cells SV-HUC-1; details: Table 9; normal cells; co-incubated 48 h; read-out: Anti-proliferative activity (IC50 ± standard deviation) SV-HUC-1
Experimental: as §1, §2

HeLa cells = experiment: CCK-8 anti-proliferative assay, HeLa; details: Table 8; co-incubated 48 h; read-out: Anti-proliferative activity (IC50 ± standard deviation) HeLa
Experimental: as §1, §2

J82 cells = experiment: CCK-8 anti-proliferative assay, J82; details: Table 6; co-incubated 48 h; read-out: Anti-proliferative activity (IC50 ± standard deviation) J82
Experimental: as §1, §2

T24 cells = experiment: CCK-8 anti-proliferative assay, T24; details: Table 6; co-incubated 48 h; read-out: Anti-proliferative activity (IC50 ± standard deviation) T24
Excerpt: (§3) The obtained quinazolinyl-aryl urea derivatives were screened for compounds with optimal activity using the following method. All cell lines employed in this experiment were of human origin, including: bladder cancer cells: J82, UM-UC-3, T24, 5637, pancreatic cancer cells: BxPC-3, PANC-1, osteosarcoma cells: 143B, MG-63, cervical cancer cells: HeLa, breast cancer cells: MCF-7, NSCLC cells: A549, hepatoblastoma cells: Hep G2, and ovarian cancer cells: SK-OV-3, as well as normal cell lines: immortalized ureteral epithelial cells (SV-HUC-1), embryonic lung fibroblasts (WI-38).
(§4) Experimental Procedure for Anti-Proliferative Activity Evaluation: The CCK-8 assay was employed. Cells in logarithmic growth phase were harvested, adjusted to appropriate density, and uniformly seeded into 96-well plates using a multichannel pipette (180 μL cell suspension containing complete medium per well, 5,000 cells/well). Blank control wells (containing basal medium, CCK-8 solution, and DMSO only) were set. Cells were incubated at 37° C. under 5% CO2. After 70% confluency was reached, test compounds (target compounds/positive controls) were added at final concentrations of 1, 2, 4, 6, 8, 12, 16, 24, and 30 μM (3 repeated wells per concentration). Compounds were pre-dissolved in DMSO, sterilized, and diluted with medium before adding 20 μL/well. After co-incubation for designated durations, 10 μL CCK-8 solution was added per well followed by 1-4 h incubation (different cells have different incubation times). The reaction was terminated, and OD (optical density) values at 450 nm were measured using a microplate reader. Inhibition rates were calculated as: (ODcontrol−ODtreatment)/ODcontrol×100%. Median inhibitory concentrations (IC50 values) were derived using Origin v8.0 software.

PANC-1 cells = experiment: CCK-8 anti-proliferative assay, PANC-1; details: co-incubated 48 h, read-out: Anti-proliferative activity (IC50 ± standard deviation) PANC-1
Excerpt: as §3, §4

Hep G2 cells = experiment: CCK-8 anti-proliferative assay, Hep G2; details: Table 8; co-incubated 48 h; read-out: Anti-proliferative activity (IC50 ± standard deviation) Hep G2
Excerpt: as §3, §4

MG-63 cells = experiment: CCK-8 anti-proliferative assay, MG-63; details: co-incubated 48 h, read-out: Anti-proliferative activity (IC50 ± standard deviation) MG-63
Excerpt: as §3, §4

BxPC-3 cells = experiment: CCK-8 anti-proliferative assay, BxPC-3; details: co-incubated 48 h, read-out: Anti-proliferative activity (IC50 ± standard deviation) BxPC-3
Excerpt: as §3, §4

UM-UC-3 cells = experiment: CCK-8 anti-proliferative assay, UM-UC-3; details: co-incubated 48 h, read-out: Anti-proliferative activity (IC50 ± standard deviation) UM-UC-3
Experimental: as §1, §2

MCF-7 cells = experiment: CCK-8 anti-proliferative assay, MCF-7; details: Table 8; co-incubated 48 h; read-out: Anti-proliferative activity (IC50 ± standard deviation) MCF-7
Experimental: as §1, §2

143B cells = experiment: CCK-8 anti-proliferative assay, 143B; details: co-incubated 48 h, read-out: Anti-proliferative activity (IC50 ± standard deviation) 143B
Excerpt: as §3, §4

A549 cells = experiment: CCK-8 anti-proliferative assay, A549; details: Table 8; co-incubated 48 h; read-out: Anti-proliferative activity (IC50 ± standard deviation) A549
Experimental: as §1, §2

[2] = test system: embryonic lung fibroblasts (WI-38); experiment: CCK-8 anti-proliferative assay, normal cells WI-38; details: Table 9, co-incubated 48 h, read-out: Anti-proliferative activity (IC50 ± standard deviation) WI-38
Excerpt: as §3, §4

5637 cells = experiment: CCK-8 anti-proliferative assay, 5637; details: Table 6; co-incubated 48 h; read-out: Anti-proliferative activity (IC50 ± standard deviation) 5637
Experimental: as §1, §2

[3] = Homo sapiens, PANC-1, Table 15, comparative compounds
[4] = Homo sapiens, SK-OV-3, Table 15, comparative compounds
[5] = Homo sapiens, MG-63, Table 14, comparative compounds
[6] = Homo sapiens, BXPC-3, Table 15, comparative compounds
[7] = Homo sapiens, UMUC3, Table 14, comparative compounds
[8] = Homo sapiens, 143B, Table 14, comparative compounds

Structure (SMILES)	IC50 (PANC-1 cells; [3]) [µM]	IC50 (SK-OV-3 cells; [4]) [µM]	IC50 (MG-63 cells; [5]) [µM]	IC50 (BxPC-3 cells; [6]) [µM]	IC50 (UM-UC-3 cells; [7]) [µM]	IC50 (143B cells; [8]) [µM]	other results
[NH2][Pt]([NH2])([Cl])[Cl] [CDDP, cisplatin, reference compound]							IC50 (SK-OV-3 cells; Table 9): 9.89 ± 0.97 µM; IC50 [1]: 10.3 ± 0.68 µM
COc1cc2ncnc(NCc3cccc(NC(=O)Nc4ccccc4)c3)c2cc1OCCCCCCN1CCN(CCN2CCOCC2)CC1 [Compound 8-1a, N-(3-(((7-methoxy-6-((6-(4-(2-morpholinoethyl)piperazin-1-yl)hexyl)oxy)quinazolin-4-yl)a-mino)methyl)phenyl)-N′-phenylurea]							IC50 (HeLa cells): > 30 µM; IC50 (J82 cells): > 30 µM; IC50 (T24 cells): > 30 µM; IC50 (PANC-1 cells; Table 7): > 30 µM; IC50 (Hep G2 cells): > 30 µM; IC50 (SK-OV-3 cells; Table 9): 28.1 ± 1.72 µM; IC50 (MG-63 cells; Table 7): 27.3 ± 1.51 µM; IC50 (BxPC-3 cells; Table 7): 15.7 ± 0.78 µM; IC50 [1]: > 30 µM; IC50 (UM-UC-3 cells; Table 6): > 30 µM; IC50 (MCF-7 cells): > 30 µM; IC50 (143B cells; Table 7): 18.7 ± 1.63 µM; IC50 (A549 cells): > 30 µM; IC50 [2]: 25.9 ± 2.74 µM; IC50 (5637 cells): 26.4 ± 1.63 µM
COc1cc2ncnc(NCc3cccc(NC(=O)Nc4ccccc4)c3)c2cc1OC [Compound I-1, reference compound]	> 30	28.4 ± 1.46	27.1 ± 1.45	18.6 ± 1.66	> 30	18.3 ± 1.74	
COc1cc2ncnc(NCc3cccc(NC(=O)Nc4ccc(C)cc4)c3)c2cc1OC [Compound I-2, reference compound]	24.4 ± 1.69	10.1 ± 0.69	11.2 ± 0.67	10.3 ± 0.59	11.2 ± 0.85	6.34 ± 0.56	
COc1cc2ncnc(NCc3cccc(NC(=O)Nc4ccc(C)cc4C)c3)c2cc1OC [Compound I-3, reference compound]	17.6 ± 1.48	9.17 ± 0.58	12.1 ± 0.76	7.78 ± 0.69	9.02 ± 0.74	5.94 ± 0.33	
CCc1ccccc1NC(=O)Nc1cccc(CNc2ncnc3cc(OC)c(OC)cc23)c1 [Compound I-5, reference compound]	12.5 ± 0.97	7.76 ± 0.38	13.4 ± 0.95	6.54 ± 0.61	10.5 ± 0.71	6.47 ± 0.28	
COc1ccccc1NC(=O)Nc1cccc(CNc2ncnc3cc(OC)c(OC)cc23)c1 [Compound I-6, reference compound]	26.5 ± 2.36	9.12 ± 0.44	25.4 ± 1.74	23.6 ± 1.47	20.6 ± 2.37	19.3 ± 1.67	
COc1ccc(NC(=O)Nc2cccc(CNc3ncnc4cc(OC)c(OC)cc34)c2)cc1 [Compound I-7, reference compound]	> 30	13.7 ± 0.85	> 30	22.8 ± 1.71	18.6 ± 1.35	21.3 ± 1.59	
COc1cc2ncnc(NCc3cccc(NC(=O)Nc4ccc(F)cc4)c3)c2cc1OC [Compound I-9, reference compound]	10.7 ± 0.95	10 ± 0.53	14.8 ± 1.22	8.62 ± 0.86	9.56 ± 0.72	6.11 ± 0.42	
